“Also recorded” adds a separate entry of the source. Residues, ends and D or L forms follow the SMILES beside them. *: point of attachment. Cbz = O=C(OCc1ccccc1)*
Tests used:
[1] = animals; cited from earlier work
[2] = tested on: mouse peritoneal macrophages; experiment: TUNEL staining of acLDL-loaded mouse peritoneal macrophages; format: cell-based; conditions: for number of TUNEL positive cells: acLDL-preloaded macrophages, agent alone, over incubation time
Description: FIG. 15 is a graph showing TUNEL staining of mouse peritoneal macrophages. Macrophages loaded with acLDL were treated with CP-113,818 (▪), CP-113,818 plus U18666A (♦), or U18666A in medium containing 0.2% BSA (□). After treatment the cells were fixed and nuclear DNA fragments were labeled using a fluorescent TUNEL assay.
It was tested whether cholesterol accumulation can induce apoptosis in cells treated with the acyl coenzyme-A:cholesterol acyltransferase (ACAT) inhibitor CP-113,818. In situ labeling of DNA fragments were analyzed in murine macrophages treated with the inhibitors using the TUNEL technique. […] Few TUNEL positive cells were detected in untreated control and in cultures treated with CP-113,818 plus U18666A for 24 h. Thus, inhibition of cholesterol transport with U18666A blocked the apoptotic effect of the ACAT inhibitor.

iNOS [3] = experiment: Nitrite production (Griess reaction) in H9c2 cardiac myoblasts; format: cell-based, rat; conditions: for effect on nitrite production in cells treated with simvastatin plus IL-1α: added to simvastatin + IL-1α 20 ng/mL
Description: Cell cultures. H9c2 cells purchased from American Type Culture Collection (ATCC, Rockville, Md.) are spontaneously immortalized ventricular myoblasts from the rat embryo, with preservation of several electrical and biochemical characteristics found in adult cardiomyocytes. […] After certain time intervals, 100 μL/well culture media were collected for determination of nitrite production. Assay for NO Production. The activity of iNOS was determined in the culture medium by assaying nitrites, taken as an index of NO production, using the Griess reagent (1% sulphanilic acid and 0.1% N-[1-naphtyl] ethylenediamine-HCl in 5% phosphoric acid) as reported previously (4,18,19). Equal volumes of medium and Griess reagent were mixed, and the purple products quantified spectrophotometrically at 550 nm. Nitrite concentrations were determined from a linear standard curve constructed with known concentrations of sodium nitrite (0 to 40 μmol/L nitrite). Nitrite Assays. Nitrite, a stable end-product of nitric oxide, was measured by using Griess reagent (1% sulphanilic acid and 0.1% N-[1-naphtyl] ethylenediamine-HCl in 5% phosphoric acid). Equal volumes of medium and Griess reagent were mixed, and the resulting purple product quantified by spectrophotometric assay at 550 nm. Nitrite concentrations were calculated from a linear standard curve constructed with known concentrations of sodium nitrite (0-14 μmol/L nitrite) (19).

iNOS [4] = experiment: Immunoblotting for iNOS protein in cytokine-stimulated H9c2 cardiac myoblasts; format: cell-based, rat; conditions: for effect on simvastatin inhibition of cytokine-induced iNOS protein expression: added to simvastatin + IL-1α or TNF-α
Description: Cell cultures. H9c2 cells purchased from American Type Culture Collection (ATCC, Rockville, Md.) are spontaneously immortalized ventricular myoblasts from the rat embryo, with preservation of several electrical and biochemical characteristics found in adult cardiomyocytes. They were cultured in DMEM medium (ATCC) supplemented with 10% heat-inactivated fetal bovine serum (FBS) in 95% air and 5% CO2 at 37° C. […] After certain time intervals, 100 μL/well culture media were collected for determination of nitrite production.
Immunoblotting. Total proteins were isolated from rat cardiac myoblasts (H9c2 cells) or embryonic stem cells in an ice-cold lysis buffer containing 10 mmol/L Tris (tris(hydroxymethyl)aminomethane) (pH 7.4), 1% sodium dodecyl sulfate (SDS) and 1× protease inhibitor (1 mmol/L sodium orthovanadate). Proteins (15 μg/lane) were separated under the reducing conditions (125 mM Tris pH 6.8, 4% SDS, 10% glycerol, 0.006% bromophenol blue, 2% β-mercaptoethanol) by electrophoresis onto 5-10% SDS-polyacrylamide gel and electro-blotted to nitrocellulose membranes (Osmonics, Westborough, Mass.). The membranes were reversibly stained with Ponceau red (Sigma) to verify equal protein loading and/or transfer. After blocking in Tris-buffered saline (0.2 M Tris and 8% NaCl) containing 5% non-fat powdered milk and 0.1% Tween 20 for 1 hour at room temperature, the membranes were incubated overnight at 4° C. with following primary antibodies to (a) iNOS (Transduction Laboratories, Lexington, Ky.; BD Biosciences); (b) NF-κB p65/rel (Santa Cruz Biotechnologies, Santa Cruz, Calif.); (c) ser^32-phosphorylated inhibitor IκBα (Santa Cruz); (d) Bad (BD Biosciences, San Jose, Calif.); (e) Bcl-xL (BD Biosciences); (f) proliferating cell nuclear antigen (PCNA; BC Biosciences); (g) ryanodine receptor (Santa Cruze Biotechnology, Inc., Santa Cruz, Calif.); (h) α-sarcomeric actinin (Sigma); (i) myocardin A (developed by immunizing rabbits with a synthetic myocardin A peptide); (j) Tie-2 (Santa Cruz); (k) manganese superoxide dismutase (Santa Cruz); and (1) β-tubulin (Sigma). The blots were incubated with horseradish peroxidase-coupled secondary antibodies, washed and developed by using a SuperSignal West Pico Chemiluminescent Substrate Kit (Pierce, Rockford, Ill.). Intensity of each immunoreactive protein band was quantified by densitometric analysis. Cytokine-stimulated RAW 264.7 cells (Transduction Laboratories, Lexington, Ky.) were used as positive controls.

hESC-derived EB = experiment: hESC embryoid body formation with proteasomal inhibitor; format: cell-based, human; conditions: MG132 at 100 nm in hanging drops, then regular culture 1-2 days
Description: FIG. 13 is a pair of photomicrographs showing hESC-derived EB after treatment with MG132 for 2 days. a, untreated and b, treated.
To determine whether protein ubiquitination has any impact on EB formation, hESCs were cultured in hanging-drops with the proteasomal inhibitor MG132 at 100 nm, and then plated in regular culture for 1-2 days.

NF-κB p65/RelA = experiment: Immunoblotting for p65/RelA subunit of NF-κB, total cellular or nuclear proteins of H9c2 cells; format: cell-based, rat; conditions: Y-27632 10^−4 mol/L
Description: Immunoblotting. Total proteins were isolated from rat cardiac myoblasts (H9c2 cells) or embryonic stem cells in an ice-cold lysis buffer containing 10 mmol/L Tris (tris(hydroxymethyl)aminomethane) (pH 7.4), 1% sodium dodecyl sulfate (SDS) and 1× protease inhibitor (1 mmol/L sodium orthovanadate). Proteins (15 μg/lane) were separated under the reducing conditions (125 mM Tris pH 6.8, 4% SDS, 10% glycerol, 0.006% bromophenol blue, 2% β-mercaptoethanol) by electrophoresis onto 5-10% SDS-polyacrylamide gel and electro-blotted to nitrocellulose membranes (Osmonics, Westborough, Mass.). The membranes were reversibly stained with Ponceau red (Sigma) to verify equal protein loading and/or transfer. […] Intensity of each immunoreactive protein band was quantified by densitometric analysis.

Rho kinase = conditions: cited from earlier work
β-adrenergic receptors = experiment: Edge-motion detection of mESC-derived contractile myogenic cells; format: cell-based, murine
Description: FIG. 11 is a series of graphs showing edge-motion detection of mESC-derived contractile myogenic cells untreated (upper) or treated with isoproterenol (10 ng/ml) in the absence (middle) or presence (lower) of propanolol (25 ng/ml).
hESC grown in DMEM media with 10% fetal bovin serum and a group of growth factors were induced to differentiate in a hang-drop 3D cell culture system. hESCs from two (H1 or H9) lines were cultured with a mouse fetal fibroblast feeder layer. After forming EBs in the hanging-drop 3D system they were replated in 12-well plates. […] Surrounding the beating colonies, the cells developed a blood vessel-like structure (FIG. 10). Using the edge-motion detection technique, a single beating myogenic cell within the developing EBs was recorded. This provides a functional marker showing the differentiational potential in cardiomyogenesis.

## Clc1ccccc1CNCC1CCC(CNCc2ccccc2Cl)CC1 (centres unmarked) [AY 9944]
[1]
  teratogenic effect: holoprosencephalic brain anomalies

## O=C(O)c1ccc(CCN2CCN(C/C=C/c3ccc(Cl)cc3)CC2)cc1 [BM 15766]
[1]
  teratogenic effect: holoprosencephalic brain anomalies

## CCCCCCCC[C@H](SCCCCCC)C(=O)Nc1c(SC)cc(C)nc1SC [CP-113,818]
[2]
  number of TUNEL positive cells: increase in the number of TUNEL positive cells

## CC(C)=CCC/C(C)=C/CC/C(C)=C/COP(=O)(O)OP(=O)(O)O [FPP, farnesylpyrophosphate]
iNOS [3]
  effect on nitrite production in cells treated with simvastatin plus IL-1α: did not alter nitrite accumulation

## CC(C)=CCC/C(C)=C/CC/C(C)=C/CC/C(C)=C/COP(=O)(O)OP(=O)(O)O [GGPP, geranylgeranylpyrophosphate]
iNOS [4]; H9c2
  effect on simvastatin inhibition of cytokine-induced iNOS protein expression: reversed the simvastatin-mediated suppression; also recorded: prevented the inhibitory effect of simvastatin; also recorded: attenuates the simvastatin inhibitory effect
iNOS [3]
  effect on nitrite production in cells treated with simvastatin plus IL-1α: attenuates the simvastatin inhibitory effect; also recorded: reversed the simvastatin-mediated suppression

## CC(C)C[C@@H](C=O)NC(=O)[C@H](CC(C)C)NC(=O)[C@H](CC(C)C)NC(=O)OCc1ccccc1 [MG132] (Cbz-Leu-Leu-Leu-aldehyde)
hESC-derived EB
  EB morphology / cell differentiation: spread out and surrounded by differentiated cells
hESC-derived EB; listed as MG-132
  EB morphology / cell differentiation: helped the cell differentiation

## CCN(CC)CCO[C@H]1CC[C@@]2(C)C(=CC[C@@H]3[C@@H]2CC[C@]2(C)C(=O)CC[C@@H]32)C1 [U18666A]
[2]; U18666A simultaneously with CP-113,818
  number of TUNEL positive cells with CP-113,818 co-treatment: greatly reduced
[2]
  number of TUNEL positive cells: no effect on the number of cells bearing this marker of apoptosis

## C[C@@H](N)[C@H]1CC[C@H](C(=O)Nc2ccncc2)CC1 [Y-27632]
NF-κB p65/RelA
  nuclear NF-κB (p65) translocation in presence of IL-1α: no major effect on the nuclear NF-κB translocation
iNOS [4]; H9c2
  effect on simvastatin inhibition of cytokine-induced iNOS protein expression: almost abolished the inhibitory effect of simvastatin
iNOS [4]; H9c2, cytokine-stimulated, no simvastatin
  cytokine-induced iNOS protein expression in the absence of simvastatin: did not alter cytokine-induced iNOS protein expression
iNOS [3]; IL-1α, Y-27632 10^−6 to 10^−5 mol/L, no simvastatin
  nitrite production (iNOS activity) in cytokine-treated cells: enhances NO production; also recorded: dose-dependently increased the iNOS activity
iNOS [3]
  effect on nitrite production in cells treated with simvastatin plus IL-1α: reversal of the statin-induced nitrite reduction; also recorded: reversed the statin inhibitory effect on iNOS activities

## CC(C)c1c(C(=O)Nc2ccccc2)c(-c2ccccc2)c(-c2ccc(F)cc2)n1CC[C@@H](O)C[C@@H](O)CC(=O)O [atorvastatin]
Rho kinase
  Rho kinase activity: inhibit the Rho kinase activity

## CC(C)CCC[C@@H](C)[C@H]1CC[C@H]2[C@@H]3CC=C4C[C@@H](O)CC[C@]4(C)[C@H]3CC[C@]12C [cholesterol]
iNOS [4]
  effect of exogenous cholesterol on the statin effect on iNOS expression: does not prevent the statin effect

## CC(C)NCC(O)c1ccc(O)c(O)c1 (centres unmarked) [isoproterenol]
β-adrenergic receptors; mESC-derived EBs, isoproterenol 10 ng/ml
  contraction of beating myocytes: marked increased contraction in both frequency and ampltitute

## CC(C)NCC(O)COc1cccc2ccccc12 (centres unmarked) [propanolol]
β-adrenergic receptors; propanolol 25 ng/ml with isoproterenol 10 ng/ml
  effect on isoproterenol stimulation of contraction: almost abolished the isoproterenol stimulatory effect

## CCN(CC)CCOc1ccc(C(O)(Cc2ccc(Cl)cc2)c2ccc(C)cc2)cc1 (centres unmarked) [triparanol]
[1]
  teratogenic effect: holoprosencephalic brain anomalies

Reference: patent publication US20070190651A1, “Myogenic Development and Protection of Stem Cells Against Inflammation and Apoptosis By Statins and Isoprenoid Pathway Inhibitors” (Board of Regents of the University of Texas System, priority 2006, published 2007)
